Test results as given in patent US20260364184A1, “COMPOUND BASED ON OXOISOINDOLINYL-SUBSTITUTED TETRAHYDROPYRIMIDINE-DIONE AND USE THEREOF” (GLUETACS THERAPEUTICS (SHANGHAI) CO., LTD., priority 2023, published 2026).

Columns and labels:
[1] = system: Human Multiple myeloma cell line (MM.1S); assay: Inhibition of MM.1S cell proliferation (CellTiter luminescent viability); assay type: cell-based; settings: Homo sapiens, MM1.S, Table IG1, FAK inhibitor-based, 96 hours; for inhibition at 0.01 µM: 10 nM, read-out: Inhibition Rate at 10 nM (%); for inhibition at 0.5 µM: 500 nM, read-out: Inhibition Rate at 500 nM (%)
Method in brief: (§1)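 IC50 is fitted from luminescent viability (CellTiter-Meiluncell) curves. Nine-point, 5-fold dilution series (top stock 2000 μM) are added at 0.5 μL per 100 μL medium to cells plated the day before, with growth at 37 °C and 5% CO2.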

[2] = system: Human myeloid monocytic leukemia cell line (MV-4-11); assay: Inhibition of MV-4-11 cell proliferation (CellTiter luminescent viability); assay type: cell-based; settings: Homo sapiens, MV4-11, Table IG2, FAK inhibitor-based, 96 hours; for inhibition at 0.01 µM: MV-4-11, 10 nM, read-out: Inhibition Rate at 10 nM (%); for inhibition at 0.5 µM: MV-4-11, 500 nM, read-out: Inhibition Rate at 500 nM (%)
Method in brief: as §1

[3] = system: Human breast cancer cell line (MDA-MB-231); assay: Inhibition of MDA-MB-231 cell proliferation (CellTiter luminescent viability); assay type: cell-based; settings: Table IG3, FAK inhibitor-based, 96 hours; for inhibition at 0.01 µM: MDA-MB-231, 10 nM, read-out: Inhibition Rate at 10 nM (%); for inhibition at 0.5 µM: MDA-MB-231, 500 nM, read-out: Inhibition Rate at 500 nM (%)
Procedure: The tumor cells used herein were cultured in a cell culture medium listed in table 3 at 37 °C in an incubator with 5% CO2. Prior to experimentation, all cell lines used were correctly identified by STR profiling, and tested negative for mycoplasma contamination using a mycoplasma detection kit through routine screenings.
The IC50 values of the compounds of the present disclosure (including the compounds in Table 1, Table 2, and Examples 1-468) were determined using the CellTiter-Meiluncell Luminescent Cell Viability Assay Kit from Dalian Meilun Biotech Co., Ltd. The detailed procedure is as follows: Tumor cells were seeded in 96-well cell culture plates at the densities specified in Table 4. On the following day, the test compounds of the present disclosure were subjected to serial dilution. The dilution can be performed according to one of the following two methods: • (1) The first dilution method: The test compounds of the present disclosure (including the compounds in Table 1, Table 2, and Examples 1-468) were subjected to 5-fold serial dilutions starting from a highest concentration of 2000 μM, resulting in a total of 9 concentrations from high to low (2000, 400, 80, 16, 3.2, 0.64, 0.128, 0.0256, 0.00512 μM). Subsequently, 0.5 μL of the test compound dilution was transferred into the 96-well plate containing the cells, with each well containing 100 μL of cell culture medium. […] Into the 96-well plate, the diluted test compounds and corresponding detection reagents were added, resulting in final test compound concentrations of 500 nM and 10 nM, respectively. The experimental procedure is described below using the diluted 2 μM test compound as an example.
0.5 μL of the aforementioned diluted compound of the present disclosure (including the compounds in Table 1, Table 2, and Examples 1-468) was added to the seeded cells in 100 μL of medium, yielding a final test compound concentration of 10 nM. After the cells were treated with the compounds of the present disclosure for a specified period, the cell viability assay reagent was added to the culture medium according to the kit's instructions to determine cell viability. […] All controls were treated using the same procedure as the compounds of the present disclosure. The growth inhibition curves for the compounds of the present disclosure were plotted using Prism GraphPad software, and the IC50 values were calculated therefrom.

WEE1 = target: T1, WEE1 (Homo sapiens, UniProt P30291+Q96SW2); assay: Western blot degradation of WEE1; assay type: cell-based; settings: hPBMC Cell; 24 hours
T1 construct: expression of target proteins in cells; endogenous in cells
T1 sequence (P30291 whole entry): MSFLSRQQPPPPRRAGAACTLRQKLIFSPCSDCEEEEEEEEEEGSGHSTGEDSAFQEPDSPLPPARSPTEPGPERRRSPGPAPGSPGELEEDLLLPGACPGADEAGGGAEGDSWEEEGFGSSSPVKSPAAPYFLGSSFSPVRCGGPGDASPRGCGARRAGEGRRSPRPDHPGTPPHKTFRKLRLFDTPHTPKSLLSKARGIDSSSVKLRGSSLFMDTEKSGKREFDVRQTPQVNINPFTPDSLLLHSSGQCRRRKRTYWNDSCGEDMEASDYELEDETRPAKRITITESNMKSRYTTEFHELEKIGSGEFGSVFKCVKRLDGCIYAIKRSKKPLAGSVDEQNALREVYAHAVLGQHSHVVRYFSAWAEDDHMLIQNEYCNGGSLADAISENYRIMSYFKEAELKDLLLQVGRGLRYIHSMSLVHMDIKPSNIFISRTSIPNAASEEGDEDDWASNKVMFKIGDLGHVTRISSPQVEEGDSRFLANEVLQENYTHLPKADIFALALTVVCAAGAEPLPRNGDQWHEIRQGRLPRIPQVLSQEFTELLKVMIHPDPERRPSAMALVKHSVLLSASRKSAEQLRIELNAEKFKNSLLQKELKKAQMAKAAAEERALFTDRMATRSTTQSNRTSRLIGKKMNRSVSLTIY
T1 sequence (Q96SW2 whole entry): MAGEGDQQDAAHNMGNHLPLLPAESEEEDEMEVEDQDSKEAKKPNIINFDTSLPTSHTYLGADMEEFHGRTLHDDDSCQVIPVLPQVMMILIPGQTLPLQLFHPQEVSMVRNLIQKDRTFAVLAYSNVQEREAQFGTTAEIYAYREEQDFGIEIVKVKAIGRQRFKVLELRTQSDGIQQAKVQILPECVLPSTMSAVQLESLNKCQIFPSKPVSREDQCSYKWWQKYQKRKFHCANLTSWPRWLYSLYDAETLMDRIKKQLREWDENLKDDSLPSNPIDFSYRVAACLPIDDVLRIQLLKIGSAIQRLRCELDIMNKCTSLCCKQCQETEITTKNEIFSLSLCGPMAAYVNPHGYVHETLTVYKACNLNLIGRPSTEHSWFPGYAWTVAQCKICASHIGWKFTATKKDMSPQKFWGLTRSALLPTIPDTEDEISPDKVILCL
T1 sequence (Q16531 whole entry partner): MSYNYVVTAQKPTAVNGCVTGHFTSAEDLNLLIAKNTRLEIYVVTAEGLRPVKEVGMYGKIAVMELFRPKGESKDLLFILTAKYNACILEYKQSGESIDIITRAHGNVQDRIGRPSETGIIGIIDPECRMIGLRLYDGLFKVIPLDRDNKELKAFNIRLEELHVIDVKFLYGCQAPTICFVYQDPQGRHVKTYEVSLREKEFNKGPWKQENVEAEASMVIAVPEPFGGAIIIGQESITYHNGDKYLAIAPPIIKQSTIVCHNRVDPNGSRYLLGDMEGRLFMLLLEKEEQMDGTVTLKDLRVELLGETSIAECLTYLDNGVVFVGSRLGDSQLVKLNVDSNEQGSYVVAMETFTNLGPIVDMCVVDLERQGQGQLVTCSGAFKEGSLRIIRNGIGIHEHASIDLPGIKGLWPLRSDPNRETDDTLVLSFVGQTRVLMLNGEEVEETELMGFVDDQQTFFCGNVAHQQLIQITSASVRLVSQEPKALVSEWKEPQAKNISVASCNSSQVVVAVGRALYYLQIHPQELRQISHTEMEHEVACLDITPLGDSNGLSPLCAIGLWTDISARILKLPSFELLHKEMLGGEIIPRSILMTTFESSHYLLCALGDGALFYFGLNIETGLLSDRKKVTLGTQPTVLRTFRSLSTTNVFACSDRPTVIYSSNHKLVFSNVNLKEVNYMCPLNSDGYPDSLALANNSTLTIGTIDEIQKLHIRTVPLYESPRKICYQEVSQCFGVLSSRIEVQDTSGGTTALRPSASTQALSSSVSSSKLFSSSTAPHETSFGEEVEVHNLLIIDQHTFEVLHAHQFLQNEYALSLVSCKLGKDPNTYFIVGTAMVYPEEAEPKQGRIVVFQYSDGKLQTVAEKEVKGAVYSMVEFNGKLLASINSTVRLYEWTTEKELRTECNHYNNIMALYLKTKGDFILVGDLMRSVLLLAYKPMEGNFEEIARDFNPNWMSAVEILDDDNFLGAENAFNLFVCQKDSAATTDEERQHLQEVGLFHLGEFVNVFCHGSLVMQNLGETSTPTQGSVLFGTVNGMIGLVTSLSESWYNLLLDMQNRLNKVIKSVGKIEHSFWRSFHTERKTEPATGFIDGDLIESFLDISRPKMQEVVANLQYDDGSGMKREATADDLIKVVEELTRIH
Procedure: (§2) Conventional Western blot assay was performed to evaluate the effects of the compounds of the present disclosure on the expression of target proteins in cells.
(§3) (1) Cell Seeding and Protein Harvesting: The selected cells were processed according to the cell seeding procedure and protein harvesting procedure in Table II-2.
(§4) (2) To the collected supernatant, 5×SDS sample loading buffer was added, followed by denaturation at 95 °C for 5 minutes. The denatured samples were then separated by SDS-PAGE electrophoresis on a polyacrylamide gel. Proteins were transferred to a nitrocellulose membrane (0.45 μm NC membrane), blocked with blocking buffer at room temperature for 1 hour, and subjected to antibody incubation and development procedures according to the antibody manufacturer's instructions (Cell Signaling Technology).
(§5) Half-Maximal Degradation Concentration value (the drug concentration required for degrading proteins by 50%, abbreviated as DC50) reads method: comparing the grayscale values of Western blot bands from drug-treated samples with those from blank DMSO-treated controls, and identifying the drug concentration range at which the grayscale value is half that of the DMSO-treated control bands.
(§6) DC50 values can be calculated using ImageJ software to measure grayscale values of Western blot bands from drug-treated samples. The concentration-response curve is fitted to estimate the drug concentration corresponding to half the grayscale value.
(§7) Target protein remaining (%) refers to the percentage of target protein remaining in cells after treatment with protein degrader compounds.
(§8) Calculation method for target protein remaining (%): Use ImageJ software to measure grayscale values of Western blot bands from drug (protein degrader)-treated samples. The grayscale value of drug-treated bands is divided by that of internal control protein bands, and the resulting quotient is normalized to obtain the relative percentage of remaining target protein after protein degrader treatment.
(§9) Target protein degradation rate (%)=1−target protein remaining (%).

CK1α = target: T2, CK1α (Homo sapiens, UniProt P48729+Q96SW2); assay: Western blot degradation of CK1α; assay type: cell-based; settings: hPBMC Cell; 24 hours
T2 construct: expression of target proteins in cells; endogenous in cells
T2 sequence (P48729 whole entry): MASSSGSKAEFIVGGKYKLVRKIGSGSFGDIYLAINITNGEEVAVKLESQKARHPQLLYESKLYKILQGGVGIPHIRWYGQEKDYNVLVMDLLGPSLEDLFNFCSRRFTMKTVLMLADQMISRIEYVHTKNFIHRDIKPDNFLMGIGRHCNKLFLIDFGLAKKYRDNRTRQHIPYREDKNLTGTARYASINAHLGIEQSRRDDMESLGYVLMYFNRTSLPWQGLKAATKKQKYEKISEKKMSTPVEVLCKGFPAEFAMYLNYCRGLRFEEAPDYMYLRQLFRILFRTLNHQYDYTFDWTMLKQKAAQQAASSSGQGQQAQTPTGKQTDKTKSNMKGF
T2 sequence (Q96SW2 whole entry): as the sequence (Q96SW2 whole entry) above
T2 sequence (Q16531 whole entry partner): as the sequence (Q16531 whole entry partner) above
Procedure: as §2, §3, §4, §5, §6, §7, §8, §9

GSPT1 = target: T3, GSPT1 (Homo sapiens, UniProt P15170+Q96SW2); assay: Western blot degradation of GSPT1; assay type: cell-based; settings: hPBMC Cell; 24 hours
T3 construct: expression of target proteins in cells; endogenous in cells
T3 sequence (P15170 whole entry): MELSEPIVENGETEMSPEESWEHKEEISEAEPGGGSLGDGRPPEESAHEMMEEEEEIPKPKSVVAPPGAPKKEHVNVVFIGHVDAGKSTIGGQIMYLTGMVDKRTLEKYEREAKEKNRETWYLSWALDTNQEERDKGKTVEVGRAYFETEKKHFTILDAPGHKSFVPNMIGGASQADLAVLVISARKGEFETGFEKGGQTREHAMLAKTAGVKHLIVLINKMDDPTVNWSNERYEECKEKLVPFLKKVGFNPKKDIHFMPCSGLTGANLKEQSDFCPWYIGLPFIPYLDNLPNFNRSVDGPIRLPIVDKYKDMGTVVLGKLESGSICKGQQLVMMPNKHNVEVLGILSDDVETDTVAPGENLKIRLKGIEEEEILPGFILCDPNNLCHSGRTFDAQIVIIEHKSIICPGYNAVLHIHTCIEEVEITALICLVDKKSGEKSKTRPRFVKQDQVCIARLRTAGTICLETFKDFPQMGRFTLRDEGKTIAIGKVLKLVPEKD
T3 sequence (Q96SW2 whole entry): as the sequence (Q96SW2 whole entry) above
T3 sequence (Q16531 whole entry partner): as the sequence (Q16531 whole entry partner) above
Procedure: as §2, §3, §4, §5, §6, §7, §8, §9

IKZF1 = target: T4, IKZF1 (Homo sapiens, UniProt Q13422+Q96SW2); assay: Western blot degradation of IKZF1; assay type: cell-based; settings: hPBMC Cell; 24 hours
T4 construct: expression of target proteins in cells; endogenous in cells
T4 sequence (Q13422 whole entry): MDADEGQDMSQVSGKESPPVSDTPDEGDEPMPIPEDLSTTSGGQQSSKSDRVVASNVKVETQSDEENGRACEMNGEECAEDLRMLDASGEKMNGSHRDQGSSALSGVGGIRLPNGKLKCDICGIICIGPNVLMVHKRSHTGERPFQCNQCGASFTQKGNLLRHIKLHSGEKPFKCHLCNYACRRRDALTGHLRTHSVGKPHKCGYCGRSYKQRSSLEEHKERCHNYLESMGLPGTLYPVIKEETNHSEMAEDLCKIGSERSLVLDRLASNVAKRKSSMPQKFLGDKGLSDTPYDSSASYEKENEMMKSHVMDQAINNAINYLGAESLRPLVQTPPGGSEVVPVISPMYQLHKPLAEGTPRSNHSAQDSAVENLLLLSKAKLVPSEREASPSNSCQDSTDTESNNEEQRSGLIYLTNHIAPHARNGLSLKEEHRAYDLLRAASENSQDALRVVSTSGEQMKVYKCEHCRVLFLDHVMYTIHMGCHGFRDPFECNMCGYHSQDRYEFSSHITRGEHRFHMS
T4 sequence (Q96SW2 whole entry): as the sequence (Q96SW2 whole entry) above
T4 sequence (Q16531 whole entry partner): as the sequence (Q16531 whole entry partner) above
Procedure: as §2, §3, §4, §5, §6, §7, §8, §9

IKZF3 = target: T5, IKZF3 (Homo sapiens, UniProt Q96SW2+Q9UKT9); assay: Western blot degradation of IKZF3; assay type: cell-based; settings: hPBMC Cell; 24 hours
T5 construct: expression of target proteins in cells; endogenous in cells
T5 sequence (Q9UKT9 whole entry): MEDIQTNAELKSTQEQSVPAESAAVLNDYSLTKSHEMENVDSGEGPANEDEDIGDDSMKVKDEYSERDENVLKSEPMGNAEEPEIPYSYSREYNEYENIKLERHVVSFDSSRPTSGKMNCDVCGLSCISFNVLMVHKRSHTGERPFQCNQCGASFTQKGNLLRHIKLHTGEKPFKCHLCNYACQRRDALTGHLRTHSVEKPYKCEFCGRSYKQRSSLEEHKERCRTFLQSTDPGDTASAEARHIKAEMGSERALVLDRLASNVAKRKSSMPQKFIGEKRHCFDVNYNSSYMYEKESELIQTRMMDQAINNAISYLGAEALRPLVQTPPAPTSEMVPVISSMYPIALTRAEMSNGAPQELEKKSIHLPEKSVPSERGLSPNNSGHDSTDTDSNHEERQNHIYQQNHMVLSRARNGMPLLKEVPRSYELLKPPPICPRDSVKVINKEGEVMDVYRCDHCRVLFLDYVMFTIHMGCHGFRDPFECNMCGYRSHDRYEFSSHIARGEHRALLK
T5 sequence (Q96SW2 whole entry): as the sequence (Q96SW2 whole entry) above
T5 sequence (Q16531 whole entry partner): as the sequence (Q16531 whole entry partner) above
Procedure: as §2, §3, §4, §5, §6, §7, §8, §9

IKZF2 = target: T6, IKZF2 (Homo sapiens, UniProt Q96SW2+Q9UKS7); assay: Western blot degradation of IKZF2; assay type: cell-based; settings: hPBMC Cell; 24 hours
T6 construct: expression of target proteins in cells; endogenous in cells
Procedure: as §2, §3, §4, §5, §6, §7, §8, §9

[4] = target: T7, human Cereblon WT GST-tagged protein (CRBN) (Homo sapiens, UniProt Q96SW2); assay: CRBN binding by HTRF (Cereblon binding kit)
T7 construct: purchased CISBIO 64BDCRBNPEH
T7 sequence (Q96SW2 whole entry): as the sequence (Q96SW2 whole entry) above
Method in brief: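 GST-tagged human Cereblon WT was incubated 3 h at room temperature with compound, thalidomide-Re tracer and Eu anti-GST antibody. Final compound concentrations were 10 to 0.00064 µM (7 points) or 2 and 0.5 µM. Inhibition rate was calculated from HTRF 665/620 nm ratios versus solvent and blank controls.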

Row | SMILES | inhibition at 0.01 µM [1] [%] | inhibition at 0.5 µM [1] [%] | inhibition at 0.01 µM [2] [%] | inhibition at 0.5 µM [2] [%] | inhibition at 0.01 µM [3] [%] | inhibition at 0.5 µM [3] [%] | Degradation of substrate protein WEE1 (substrate protein remaining %) (WEE1) | Degradation of substrate protein CK1α (substrate protein remaining %) (CK1α) | Degradation of substrate protein GSPT1 (substrate protein remaining %) (GSPT1) | Degradation of substrate protein IKZF1 (substrate protein remaining %) (IKZF1) | Degradation of substrate protein IKZF3 (substrate protein remaining %) (IKZF3) | Degradation of substrate protein IKZF2 (substrate protein remaining %) (IKZF2) | IC50 [4] [nM]
1 | CNC(=O)c1ccc(Nc2ncc(C(F)(F)F)c(NCc3nccnc3N(C)S(C)(=O)=O)n2)cc1 [Defactinib, reference compound] | 5 to 10 | 5 to 10 | 5 to 10 | 60 to 70 | 30 to 40 | 30 to 40 |  |  |  |  |  |  | 
2 | O=C1CCN(N2Cc3cc(CBr)ccc3C2=O)C(=O)N1 [GT-05568, 1-(5-(bromomethyl)-1-oxoisoindolin-2-yl)dihydropyrimidine-2,4(1H, 3H)-dione] |  |  |  |  |  |  | A (0%≤substrate protein remaining %≤80%) | A (0%≤substrate protein remaining %≤80%) | A (0%≤substrate protein remaining %≤80%) | A (0%≤substrate protein remaining %≤80%) | A (0%≤substrate protein remaining %≤80%) | B (80%<substrate protein remaining %≤100%) | 1000 to 1500
3 | O=CC1CCN(C2CCN(c3ccc4c(c3)C(=O)N(N3CCC(=O)NC3=O)C4=O)CC2)CC1 [GT-05595, 1′-(2-(2,4-dioxotetrahydropyrimidin-1(2H)-yl)-1,3-dioxoisoindolin-5-yl)-[1,4′-bipiperidine]-4-carbaldehyde] |  |  |  |  |  |  | B (80%<substrate protein remaining %≤100%) | B (80%<substrate protein remaining %≤100%) | B (80%<substrate protein remaining %≤100%) | B (80%<substrate protein remaining %≤100%) | B (80%<substrate protein remaining %≤100%) | A (0%≤substrate protein remaining %≤80%) | 
4 | O=C1CCN(N2C(=O)c3ccc(CBr)cc3C2=O)C(=O)N1 [GT-06979, 5-(bromomethyl)-2-(2,4-dioxotetrahydropyrimidin-1(2H)-yl)isoindoline-1,3-dione] |  |  |  |  |  |  | A (0%≤substrate protein remaining %≤80%) | B (80%<substrate protein remaining %≤100%) | B (80%<substrate protein remaining %≤100%) | B (80%<substrate protein remaining %≤100%) | B (80%<substrate protein remaining %≤100%) | A (0%≤substrate protein remaining %≤80%) | 
5 | NCc1ccc2c(c1)C(=O)N(N1CCC(=O)NC1=O)C2=O [GT-07968, 5-(aminomethyl)-2-(2,4-dioxotetrahydropyrimidin-1(2H)-yl)isoindoline-1,3-dione] |  |  |  |  |  |  | A (0%≤substrate protein remaining %≤80%) | A (0%≤substrate protein remaining %≤80%) | B (80%<substrate protein remaining %≤100%) | A (0%≤substrate protein remaining %≤80%) | A (0%≤substrate protein remaining %≤80%) | A (0%≤substrate protein remaining %≤80%) | 
6 | CN(Cc1ccc2c(c1)C(=O)N(N1CCC(=O)NC1=O)C2)C1CCN(c2ccc(Nc3ncc(C(F)(F)F)c(NCc4nccnc4N(C)S(C)(=O)=O)n3)cc2)CC1 [GT-08136, N-(3-(((2-((4-(4-(((2-(2,4-dioxotetrahydropyrimidin-1(2H)-yl)-3-oxoisoindolin-5-yl)methyl)(methyl)amino)piperidin-1-yl)phenyl)amino)-5-(trifluoromethyl)pyrimidin-4-yl)amino)methyl)pyrazin-2-yl)-N-methylmethanesulfonamide] |  |  | -5 to 0 | 80 to 100 | 20 to 30 | 50 to 60 |  |  |  |  |  |  | 
7 | CN(c1nccnc1CNc1nc(Nc2ccc(N3CCC(N4CCN(CC5CCN(c6cccc7c6C(=O)N(N6CCC(=O)NC6=O)C7=O)CC5)CC4)CC3)cc2)ncc1C(F)(F)F)S(C)(=O)=O [GT-08245, N-(3-(((2-((4-(4-(4-((1-(2-(2,4-dioxotetrahydropyrimidin-1(2H)-yl)-1,3-dioxoisoindolin-4-yl)piperidin-4-yl)methyl)piperazin-1-yl)piperidin-1-yl)phenyl)amino)-5-(trifluoromethyl)pyrimidin-4-yl)amino)methyl)pyrazin-2-yl)-N-methylmethanesulfonamide] | 5 to 10 | 80 to 100 | 20 to 30 | 80 to 100 | 30 to 40 | 80 to 100 |  |  |  |  |  |  | 
8 | CN(c1cccc(CNc2nc(Nc3ccc(N4CCC(N5CCN(CC6CCN(c7cccc8c7C(=O)N(N7CCC(=O)NC7=O)C8=O)CC6)CC5)CC4)cc3)ncc2C(F)(F)F)c1)S(C)(=O)=O [GT-08248, N-(3-(((2-((4-(4-(4-((1-(2-(2,4-dioxotetrahydropyrimidin-1(2H)-yl)-1,3-dioxoisoindolin-4-yl)piperidin-4-yl)methyl)piperazin-1-yl)piperidin-1-yl)phenyl)amino)-5-(trifluoromethyl)pyrimidin-4-yl)amino)methyl)phenyl)-N-methylmethanesulfonamide] | 30 to 40 | 60 to 80 | 20 to 30 | 80 to 100 | 20 to 30 | 70 to 80 |  |  |  |  |  |  | 
